Data as given in article PMC3696112 (PLoS ONE, 2013).

Target: T1, Ech (enoyl-CoA hydratase/aldolase) (Streptomyces sp. V-1, UniProt S5LPF1)
T1 construct: ATCC 39116
T1 sequence (S5LPF1 1-287): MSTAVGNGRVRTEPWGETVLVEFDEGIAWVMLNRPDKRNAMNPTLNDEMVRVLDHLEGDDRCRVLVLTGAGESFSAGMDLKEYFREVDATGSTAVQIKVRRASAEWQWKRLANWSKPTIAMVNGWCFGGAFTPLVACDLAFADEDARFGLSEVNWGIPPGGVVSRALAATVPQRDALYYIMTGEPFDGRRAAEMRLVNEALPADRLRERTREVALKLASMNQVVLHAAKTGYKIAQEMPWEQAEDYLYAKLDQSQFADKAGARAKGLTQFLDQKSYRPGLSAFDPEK
Assay: coupled assay with purified Fcs, GC analysis (qualitative)
Format: biochemical
Conditions: feruloyl-CoA made in situ from 0.7 mM ferulic acid by Fcs; 2 mM ATP, 0.4 mM CoA, 2.5 mM MgCl2, 100 mM potassium phosphate pH 7.0

Compound: COc1cc(C=O)ccc1O [vanillin, 4-hydroxy-3-methoxybenzaldehyde]
- coupled assay with purified Fcs, GC analysis (qualitative): production of vanillin, catalyzed by Ech, were observed and analyzed qualitatively from the GC spectrum
